The test concerns cardiomyocytes. The test is described as follows: live cell imaging of changes in cell areas after stimulation (FIG. 17A). The settings on record: for changes in cell areas vs Ctrl: after 9 h, Ctrl vs PE/Ins; for early dynamics of cell area: early dynamics (<2.5 h), compared with ctrl (no increase). Format: cell-based. The protocol:
Image acquisition can be performed with a microscope. Preferably, this is performed at the end of the experiment. In other embodiments, the image acquisition is performed during the course of the experiment to analyze the cell response over time (video, live cell imaging).
In order to perform time series analysis, imaging of cells can happen multiple times with live cell fluorescent dyes. This allows visualizing the dynamics of cell morphological changes over time. Experiments have shown that certain dynamics leads to a characteristic set of meta-features associated with certain diagnoses, prognoses, and/or individualized therapy.

The values that follow come from US20230352149A1, “Single-cell morphology analysis for disease profiling and drug discovery” (Universität Heidelberg, priority 2020, published 2023).

As for `CNC[C@H](O)c1cccc(O)c1` [PE, phenylephrine], the “changes in cell areas vs Ctrl” value was “differences following stimulation can be observed” and the “early dynamics of cell area” value is “steep increase”.
On the same counts, the results for insulin are “differences following stimulation can be observed” and “less steep increase”.
